Biological target: T1, human liver FBPase (Homo sapiens, UniProt P09467)
T1 construct: made in house; host or cells: E. coli
T1 sequence (P09467 2-338 limits assumed): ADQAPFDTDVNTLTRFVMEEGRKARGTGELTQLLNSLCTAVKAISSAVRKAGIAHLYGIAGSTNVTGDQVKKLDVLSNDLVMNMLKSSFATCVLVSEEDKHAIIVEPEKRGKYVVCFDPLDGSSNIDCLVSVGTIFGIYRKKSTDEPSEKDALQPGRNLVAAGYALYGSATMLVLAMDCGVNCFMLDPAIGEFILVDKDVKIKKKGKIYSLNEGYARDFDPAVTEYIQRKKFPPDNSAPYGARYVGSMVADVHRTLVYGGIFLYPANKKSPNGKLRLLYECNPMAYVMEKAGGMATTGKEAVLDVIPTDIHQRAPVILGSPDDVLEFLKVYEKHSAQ
Test: FBPase assay: inorganic phosphate release (malachite green)
Type: biochemical
Settings: recombinant human liver FBPase, 50 μM fructose-1,6-bisphosphate, read-out at 620 nm
Procedure, shortened: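 Recombinant human liver FBPase (E. coli-expressed, >90% pure), 25 ng per reaction, with 50 μM fructose-1,6-bisphosphate in 50 mM HEPES-KOH pH 7.2, 2 mM MgCl2, 2 mM EDTA, 1 mM DTT, 1% DMSO. After 50 min at room temperature, released phosphate was complexed with malachite green/ammonium molybdate and read at 620 nm.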

Compound	IC50 [nM]
CC(=O)OCCc1sc(S(=O)(=O)NC(=O)Nc2nc(-c3ccccc3)c(C)s2)cc1C [Example 73, 2-[3-Methyl-5-({[(5-methyl-4-phenyl-1,3-thiazol-2-yl)carbamoyl]amino}sulfonyl)-2-thienyl]ethyl acetate]	128
CSc1sc(NC(=O)NS(=O)(=O)c2cc(C)c(CCOC(C)=O)s2)nc1C [Example 85, 2-{3-Methyl-5-[({[4-methyl-5-(methylthio)-1,3-thiazol-2-yl]carbamoyl}amino)sulfonyl]-2-thienyl}ethyl acetate]	160
COc1cnc(NC(=O)NS(=O)(=O)c2cc3cccc(OC)c3s2)s1 [Example 54]	1280
Cc1cccc2cc(S(=O)(=O)NC(=O)Nc3ncc(Br)s3)sc12 [Example 14, N-[(5-Bromo-1,3-thiazol-2-yl)carbamoyl]-7-methyl-1-benzothiophene-2-sulfonamide]	161
COCCn1cc(S(=O)(=O)NC(=O)Nc2ncc(Br)s2)c2ccccc21 [Example 31, N-[(5-Bromo-1,3-thiazol-2-yl)carbamoyl]-1-(2-methoxyethyl)-1H-indole-3-sulfonamide]	2250
Cn1cc(S(=O)(=O)NC(=O)Nc2ncc(Br)s2)c2cc(OCc3ccccc3)ccc21 [Example 24, 5-(Benzyloxy)-N-[(5-bromo-1,3-thiazol-2-yl)carbamoyl]-1-methyl-1H-indole-3-sulfonamide]	683
O=C(Nc1ncc(Br)s1)NS(=O)(=O)c1csc2c(Cl)cccc12 [Example 18, N-[(5-Bromo-1,3-thiazol-2-yl)carbamoyl]-7-chloro-1-benzothiophene-3-sulfonamide]	208
COc1ccc2cc(S(=O)(=O)NC(=O)Nc3ncc(Br)s3)sc2c1Br [Example 15, 7-Bromo-N-[(5-bromo-1,3-thiazol-2-yl)carbamoyl]-6-methoxy-1-benzothiophene-2-sulfonamide]	141

Further compounds by falling IC50, results first:

IC50 [nM]	Compound
4060	COc1cccc2c(S(=O)(=O)NC(=O)Nc3ncc(Br)s3)c[nH]c12 [Example 43, N-[(5-bromo-1,3-thiazol-2-yl)carbamoyl]-7-methoxy-1H-indole-3-sulfonamide]
734	COc1cnc(NC(=O)NS(=O)(=O)c2cn(C)c3c(OCCO)cccc23)s1 [Example 47, 7-(2-Hydroxyethoxy)-N-[(5-methoxy-1,3-thiazol-2-yl)carbamoyl]-1-methyl-1H-indole-3-sulfonamide]
446	COC(=O)c1ccc2scc(S(=O)(=O)NC(=O)Nc3ncc(Br)s3)c2c1 [Example 10, Methyl-3-({[(5-bromo-1,3-thiazol-2-yl)carbamoyl]amino}sulfonyl)-1-benzothiophene-5-carboxylate]
375	COCCOc1cccc2c(S(=O)(=O)NC(=O)Nc3ncc(Br)s3)cn(C)c12 [Example 42, N-[(5-bromo-1,3-thiazol-2-yl)carbamoyl]-7-(2-methoxyethoxy)-1-methyl-1H-indole-3-sulfonamide]
268	O=C(Nc1ncc(Br)s1)NS(=O)(=O)c1cc2cccc(Cl)c2s1 [Example 19, N-[(5-Bromo-1,3-thiazol-2-yl)carbamoyl]-7-chloro-1-benzothiophene-2-sulfonamide]

Reference: patent US7973051B2 (Hoffman-La Roche Inc., priority 2007, dated 2011)
